These results are taken from patent US20070015840A1, “Use of an alkyl ether of hydroxystilbene for the treatment of dry skin” (L'OREAL, priority 2002, published 2007).

The experiment has as its system immortalized human sebocytes derived from the SZ95 line. Put plainly: Lipogenesis in immortalized human sebocytes in culture (SZ95 line), Nile Red fluorescence, total lipids. In kind it is cell-based. The note with it: for VARIATION IN LIPIDS (relative to the control): 0.1% DMSO, 24 hours treatment, total lipids, Nile Red. On the procedure: Resveratrol trimethyl ether was tested on a model of immortalized human sebocytes in culture, derived from the SZ95 line described in Zouboulis, C. C., Seltmann, H., Neitzel, H. & Orfanos, C. E., Establishment and Characterization of an Immortalized Human Sebaceous Gland Cell Line, J. Invest. Dermatol., 113, 1011-1020 (1999).
The test consisted in measuring the amount of lipids produced by the sebocytes of the line (at confluence), in the presence or absence of an active agent diluted in DMSO, at two different concentrations, such that the final amount of DMSO in the culture medium is 0.1% and the amount of resveratrol trimethyl ether is 0.01% (4×10^−4 M) and 0.001% (4×10^−5 M), respectively. After treatment for 24 hours, the adherent cells are treated with Nile Red (1 μg/ml). The lipid content is then quantified by measuring the fluorescence of the dye (two excitation/emission pairs: 485-540 nm for the neutral lipids and 540-620 nm for the non-neutral lipids). The results are given for the total lipids (combination of the two measurements).
The experiment is performed in sextuplicate (products assayed and control) in 96-well plates and repeated four times.

Turning to `COc1ccc(C=Cc2cc(OC)cc(OC)c2)cc1` [resveratrol trimethyl ether, Resveratrol trimethyl ether], the “VARIATION IN LIPIDS (relative to the control)” value by setting is: (0.001% (4×10^−5 M) compound) “+36%”; (0.01% (4×10^−4 M) compound) “+46%”.

For the molecule `Oc1ccc(C=Cc2cc(O)cc(O)c2)cc1` [resveratrol], the inhibition of lipogenesis (0.001%, same conditions as resveratrol trimethyl ether (second of 'respectively')) is given as 67% and the inhibition of lipogenesis (0.01%, same conditions as resveratrol trimethyl ether (first of 'respectively')) is listed as 20%. Moreover, under “qualitative statement in the description”, the “ability of sebocytes to produce sebum” value is listed as “decreased”.
